Assay results from patent publication US6723523B2, “System and method for investigating the effect of chemical and other factors on cell movement” (University of Connecticut, priority 2000, dated 2004).

What was measured:
Dictyostelium cells = experiment: Inhibition of chemotactic response to folic acid by cisplatin, ECIS/taxis; type: cell-based, Dictyostelium discoidium; conditions: increasing concentrations of cisplatin, folic acid as chemoattractant
Procedure: These chambers were filled with 300 μL of a 0.5% solution of melted agarose prepared as described above. The thickness of the agarose layer is 4 mm. […]

[1] = system: Dictyostelium discoidium strain NC4A2 cells; experiment: ECIS/taxis under-agarose chemotaxis assay, cell movement in a folate gradient; type: cell-based
Procedure: Dictyostelium discoidium strain NC4A2 is an axenic cell line derived from the wild type NC4 line. The myosin II heavy chain mutant (HK323) was generated by homologous recombination to delete the coding portion of the gene in the NC4A2 cell line. Cells were maintained in HL5 media in 100 mm petri dishes with media changes every three days. Cells to be used for experimental procedures were harvested at mid-log phase. Cells were centrifuged at 200×g for 5 minutes at room temperature, re-suspended in fresh media and counted with a Z2 particle counter (Coulter, Miami, Fla.). Chambers were loaded with 10^6 cells per well.
Chemotaxis assays were adapted from the under-agarose chemotaxis method. Briefly, a 0.5% solution of GTG agarose (FMC Corporation, Rockland, Me.) was prepared in 1×SM media (10 g Difco Bacto-Peptone, 10 g glucose, 1 g yeast extract, 1.9 g KH2PO4, 0.6 g K2HPO4, 0.43 g MgSO4 per liter, pH 6.5). For chemokinetic assays, 2×SM agarose media was premixed with an equal volume of 2× folic acid and then added to the chamber to harden.
The chemoattractant folic acid (Research Organics, Inc. Cleveland, Ohio) stock at 100 mM was prepared by dissolving 0.44 g folate in 220 ul of 10 M NaOH. The final volume was adjusted to 10 ml with distilled water. The solution was filter sterilized through a 0.2 micron filter, aliquoted and stored frozen at −20° C. in the dark. The folate solution was adjusted to the appropriate concentration and added to wells one hour prior to the addition of cells to allow for establishment of the chemotactic gradient. […] Following this incubation, the cells were washed three times in PDF and then re-suspended in PDF before placement in the cell wells of ECIS/taxis chambers.
The commercially available ECIS electrode configuration (Applied Biophysics, Inc., Troy, N.Y.) consists of 8 chambers per array, each with a large electrode and a small target electrode (see panel A of FIG. 2). These chambers were filled with 300 μL of a 0.5% solution of melted agarose prepared as described above. […]
The chemoattractant was then loaded into one well in appropriate chambers and the gradient was allowed to form for one hour. […] Impedance to this current flow was measured and a resistance value was calculated according to established protocols. […] In the results presented below, the data is presented as normalized resistance, which is calculated as a fraction of the initial resistance of the chamber at the start of the experiment.
A gradient was established by loading 1 mM folate into the chemoattractant well of a modified ECIS chamber, and one hour later Dictyostelium cells were placed in the adjacent cell well. […] In order to visualize the arrival of the cells at the target electrode, the cells exposed to folate were continuously monitored by video microscopy. […]

| Structure (SMILES) | effect on time of arrival of cells at the electrode (Dictyostelium cells) | absolute number of cells that arrive at the electrode versus folate dose ([1]; folate 0.16 to 1 mM in chemoattractant well) | time of arrival of cells at the target electrode after placement of cells in the cell well ([1]; gradient formed by 1 mM folate) | average speed of cell movement to the target electrode ([1]; gradient from 1 mM folate) | time of first small resistance peak (initial cell spreading on the target electrode) ([1]; gradient from 1 mM folate in chemoattractant well, loaded 1 h before cells, wells 2 mm from electrode) |
| --- | --- | --- | --- | --- | --- |
| N.N.[Cl][Pt][Cl] [cisplatin, Cisplatin] | delayed in a manner proportional to the dose of cisplatin | – | – | – | – |
| Nc1nc2ncc(CNc3ccc(C(=O)N[C@@H](CCC(=O)O)C(=O)O)cc3)nc2c(=O)[nH]1 [folate, folic acid] | – | absolute number of cells that arrive decreases as the dose of folate used to establish the gradient decreases | approximately 3.5 hours | approximately 10 μm/min | 3.75 h |
